In ChEMBL document CHEMBL1201862, “PubChem BioAssay data set” (2004):
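Each compound was tested at five concentrations against cells in 96-well plates for 48 hours. GI50 is the concentration that inhibits growth by half.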 The source made the active and inactive calls. Cut-off read from the data, not from the text of the source: active = GI50 up to about 1.1 µM and inactive = higher. Where a SMILES comes first, the peptide text is derived from it. The star is where a group is joined. Boc = CC(C)(C)OC(=O)*

Tests used:
Experiment in all cases: inhibition of tumour cell growth, NCI panel, 48 h
MCF7 = system: MCF7
PC-3 = system: PC-3
OVCAR-4 = system: OVCAR-4
DU-145 = system: DU-145
CAKI-1 = system: CAKI-1
MDA-MB-435 = system: MDA-MB-435
HOP-62 = system: HOP-62
Malme-3M = system: Malme-3M
786-0 = system: 786-0
ACHN = system: ACHN
OVCAR-3 = system: OVCAR-3
MOLT-4 = system: MOLT-4
RXF 393 = system: RXF 393
SK-MEL-2 = system: SK-MEL-2
TK-10 = system: TK-10
UACC-62 = system: UACC-62
EKVX = system: EKVX
OVCAR-8 = system: OVCAR-8
CCRF-CEM = system: CCRF-CEM
SNB-75 = system: SNB-75

Structure (SMILES) | GI50 (MCF7) | GI50 (PC-3) | GI50 (OVCAR-4) | GI50 (DU-145) | GI50 (CAKI-1) | GI50 (MDA-MB-435) | GI50 (HOP-62) | GI50 (Malme-3M) | GI50 (786-0) | GI50 (ACHN) | GI50 (OVCAR-3) | GI50 (MOLT-4) | GI50 (RXF 393) | GI50 (SK-MEL-2) | GI50 (TK-10) | GI50 (UACC-62) | GI50 (EKVX) | GI50 (OVCAR-8) | GI50 (CCRF-CEM) | GI50 (SNB-75)
COc1cc2c3cc1Oc1cc(ccc1O)C[C@@H]1c4c(cc(OC)c(O)c4Oc4ccc(cc4)C[C@@H]3N(C)CC2)CC[N+]1(C)C | 22.4 µM (inactive) | 21.9 µM (inactive) | 73.8 µM (inactive) | 42 µM (inactive) | > 100 µM (inactive) | 43.7 µM (inactive) | 6.95 µM (inactive) | 17.8 µM (inactive) | 55.3 µM (inactive) | > 100 µM (inactive) | 25.7 µM (inactive) | 61.8 µM (inactive) | 13.6 µM (inactive) | 90.2 µM (inactive) | > 100 µM (inactive) | > 100 µM (inactive) | > 100 µM (inactive) | 58.7 µM (inactive) | – | –
CC1NC(=O)C2Cc3ccc(O)c(c3)Oc3ccc(cc3)C(O)C(C(=O)N2C)N(C)C(=O)C(C)NC(=O)C(Cc2ccc(O)cc2)N(C)C(=O)C(C)NC1=O (configuration not stated) | 13.7 µM (inactive) | 23.8 µM (inactive) | 35.1 µM (inactive) | 32.4 µM (inactive) | > 100 µM (inactive) | 18.8 µM (inactive) | 34.7 µM (inactive) | – | 38 µM (inactive) | > 100 µM (inactive) | 25.3 µM (inactive) | 19.4 µM (inactive) | – | 8.41 µM (inactive) | > 100 µM (inactive) | 19.5 µM (inactive) | 57 µM (inactive) | 24.7 µM (inactive) | 9.71 µM (inactive) | 3.67 µM (inactive)
COc1cc2nc(-c3cccs3)nc(N3CCN(c4ccccc4)CC3)c2cc1OC | > 100 µM (inactive) | > 100 µM (inactive) | > 100 µM (inactive) | > 100 µM (inactive) | > 100 µM (inactive) | > 100 µM (inactive) | > 100 µM (inactive) | > 100 µM (inactive) | > 100 µM (inactive) | > 100 µM (inactive) | > 100 µM (inactive) | – | – | > 100 µM (inactive) | > 100 µM (inactive) | > 100 µM (inactive) | > 100 µM (inactive) | > 100 µM (inactive) | – | > 100 µM (inactive)
CCc1ccccc1/N=N/C(=O)NNc1ccccc1CC | 19.2 µM (inactive) | 16.4 µM (inactive) | 24 µM (inactive) | 14.9 µM (inactive) | 27.9 µM (inactive) | 24.4 µM (inactive) | 15.8 µM (inactive) | 17.6 µM (inactive) | 17.6 µM (inactive) | 19.8 µM (inactive) | 18.7 µM (inactive) | 19.4 µM (inactive) | – | 17.5 µM (inactive) | 22.1 µM (inactive) | 10.3 µM (inactive) | – | 15.2 µM (inactive) | 25.3 µM (inactive) | 19.4 µM (inactive)
COc1cc(/C=C2\C[C@H]3[C@@H]4CC=C5C[C@@H](O)CC[C@]5(C)[C@H]4CC[C@]3(C)C2=O)cc(OC)c1OC | 20.8 µM (inactive) | 28.1 µM (inactive) | 39.4 µM (inactive) | 39.1 µM (inactive) | 36.9 µM (inactive) | 29.8 µM (inactive) | 26.4 µM (inactive) | 32.7 µM (inactive) | 26.6 µM (inactive) | 30.5 µM (inactive) | 26.2 µM (inactive) | 16.3 µM (inactive) | 19.6 µM (inactive) | 28.8 µM (inactive) | 37.2 µM (inactive) | 37.1 µM (inactive) | 33.5 µM (inactive) | 34.6 µM (inactive) | – | 30.6 µM (inactive)
O=C1C(Cl)=C(NCCc2ccc(O)cc2)C(=O)c2c(O)ccc(O)c21 | 4.13 µM (inactive) | > 10 µM (inactive) | > 10 µM (inactive) | > 10 µM (inactive) | > 10 µM (inactive) | 4.36 µM (inactive) | 6.56 µM (inactive) | 1.88 µM (inactive) | 9.46 µM (inactive) | > 10 µM (inactive) | 4.8 µM (inactive) | > 10 µM (inactive) | – | 8.28 µM (inactive) | > 10 µM (inactive) | 3.74 µM (inactive) | > 10 µM (inactive) | > 10 µM (inactive) | 4.34 µM (inactive) | > 10 µM (inactive)
CCOC(=O)c1nc2cc(F)cc(F)c2[nH]c1=O | > 100 µM (inactive) | > 100 µM (inactive) | > 100 µM (inactive) | > 100 µM (inactive) | > 100 µM (inactive) | > 100 µM (inactive) | > 100 µM (inactive) | – | > 100 µM (inactive) | > 100 µM (inactive) | > 100 µM (inactive) | > 100 µM (inactive) | – | > 100 µM (inactive) | > 100 µM (inactive) | > 100 µM (inactive) | – | > 100 µM (inactive) | > 100 µM (inactive) | > 100 µM (inactive)
CCC1OC2C(CC=C(C)C)=C3OC(C)(O)C(C)(CC)C(O)C3=C3OC(=O)C=C1C32 (configuration not stated) | 31.3 µM (inactive) | 68.5 µM (inactive) | 36.2 µM (inactive) | 50.5 µM (inactive) | > 100 µM (inactive) | 67 µM (inactive) | – | – | 37.2 µM (inactive) | 38.3 µM (inactive) | – | 24.5 µM (inactive) | – | 26.1 µM (inactive) | 70.6 µM (inactive) | 26.7 µM (inactive) | 35.6 µM (inactive) | – | 33.6 µM (inactive) | –
CN(NC(=O)/C(=C/C=C/c1ccccc1)NC(=O)c1ccccc1)C1=C(Cl)C(=O)[N+](c2ccccc2)=CC1 | 16.7 µM (inactive) | 35.7 µM (inactive) | 22.4 µM (inactive) | 33 µM (inactive) | 35.4 µM (inactive) | 17 µM (inactive) | 21.7 µM (inactive) | 37.9 µM (inactive) | 19.4 µM (inactive) | 26.7 µM (inactive) | 20.8 µM (inactive) | 24.3 µM (inactive) | 20.1 µM (inactive) | 26.2 µM (inactive) | 55.2 µM (inactive) | – | 35.8 µM (inactive) | 21.1 µM (inactive) | – | 21.6 µM (inactive)
CC1=NN(c2nc(N)nc(CC#N)n2)C(C)(C)C1 | > 100 µM (inactive) | > 100 µM (inactive) | > 100 µM (inactive) | > 100 µM (inactive) | > 100 µM (inactive) | > 100 µM (inactive) | > 100 µM (inactive) | – | > 100 µM (inactive) | > 100 µM (inactive) | – | > 100 µM (inactive) | > 100 µM (inactive) | > 100 µM (inactive) | > 100 µM (inactive) | > 100 µM (inactive) | > 100 µM (inactive) | > 100 µM (inactive) | > 100 µM (inactive) | > 100 µM (inactive)
CCCC1NC(C#N)(C#N)C(CCC)NC1(C#N)C#N (configuration not stated) | 0.0689 µM (active) | 0.318 µM (active) | 1.18 µM (inactive) | 3.78 µM (inactive) | 0.0573 µM (active) | 0.106 µM (active) | 35.8 µM (inactive) | 0.0297 µM (active) | 0.0326 µM (active) | 0.296 µM (active) | 0.076 µM (active) | < 0.0214 µM (active) | – | 52.1 µM (inactive) | 1.01 µM (active) | 17.4 µM (inactive) | 42.8 µM (inactive) | 0.149 µM (active) | < 0.01 µM (active) | 2.17 µM (inactive)
CSc1cc(Cl)c(C)cc1S(=O)(=O)NC(=O)NNc1ccc(F)cc1 | > 100 µM (inactive) | > 100 µM (inactive) | > 100 µM (inactive) | > 100 µM (inactive) | > 100 µM (inactive) | > 100 µM (inactive) | > 100 µM (inactive) | > 100 µM (inactive) | > 100 µM (inactive) | 66.8 µM (inactive) | > 100 µM (inactive) | > 100 µM (inactive) | > 100 µM (inactive) | > 100 µM (inactive) | – | – | > 100 µM (inactive) | > 100 µM (inactive) | – | > 100 µM (inactive)
N=C1OC(c2c[nH]c3ccc(OCc4ccccc4)cc23)C(O)=C1O (configuration not stated) | > 100 µM (inactive) | > 100 µM (inactive) | > 100 µM (inactive) | > 100 µM (inactive) | > 100 µM (inactive) | > 100 µM (inactive) | > 100 µM (inactive) | > 100 µM (inactive) | > 100 µM (inactive) | > 100 µM (inactive) | > 100 µM (inactive) | > 100 µM (inactive) | > 100 µM (inactive) | > 100 µM (inactive) | > 100 µM (inactive) | > 100 µM (inactive) | > 100 µM (inactive) | > 100 µM (inactive) | – | 29.2 µM (inactive)
C/C(=N\Nc1nc2ccccc2s1)c1cccnn1 | 2.75 µM (inactive) | 1.79 µM (inactive) | 76 µM (inactive) | 1.92 µM (inactive) | 1.04 µM (active) | 4.26 µM (inactive) | 1.63 µM (inactive) | – | 1.26 µM (inactive) | 0.718 µM (active) | 0.406 µM (active) | 3.91 µM (inactive) | 17.1 µM (inactive) | 3.05 µM (inactive) | – | 2.7 µM (inactive) | 0.753 µM (active) | 1.66 µM (inactive) | 0.381 µM (active) | 5.5 µM (inactive)
COC(=O)C(C)NC(=O)C(CCSC)NC(=O)C(Cc1ccccc1)NC(=O)OC(C)(C)C (stereo not drawn) (Boc-Phe-Met-Ala-OMe; configuration not given here) | > 100 µM (inactive) | > 100 µM (inactive) | > 100 µM (inactive) | > 100 µM (inactive) | > 100 µM (inactive) | > 100 µM (inactive) | > 100 µM (inactive) | > 100 µM (inactive) | > 100 µM (inactive) | > 100 µM (inactive) | > 100 µM (inactive) | > 100 µM (inactive) | – | > 100 µM (inactive) | > 100 µM (inactive) | > 100 µM (inactive) | – | > 100 µM (inactive) | > 100 µM (inactive) | > 100 µM (inactive)
